The values that follow come from PubChem BioAssay AID1996.

Converted amounts (≈) assume the structure as drawn.

For this data set the following is noted: buffer; pH 7.4; 200.0 µM.
As for `CC1(C)COC2(OC1)C(=O)Nc1ccccc12`, the solubility (kinetic) is more than 35 µg/mL. Consider `O=C(/C=C/c1ccc([N+](=O)[O-])cc1)OCC(=O)N1CCCCCC1`, for which the solubility (kinetic) was 18.9 µg/mL (≈ 56.9 µM).

Take `O=C(O)CC(NCc1ccco1)C(=O)OCCCl` (configuration not stated): the kinetic solubility was more than 41.4 µg/mL.

The molecule `CC1=C(C)CC(C(=O)NC(C)CCc2ccccc2)C(C(=O)O)C1` (configuration not stated) yielded a solubility (kinetic) of more than 49.4 µg/mL. In turn, `O=C1C2C3C=CC(CC3)C2C(=O)N1c1ccc(Cl)cc1` (configuration not stated) gave a solubility (kinetic) of less than 0.6 µg/mL. The value for `O=c1[nH]c2cccnc2n1-c1cccc([N+](=O)[O-])c1` was 17 µg/mL (≈ 66.3 µM).

`O=C(O)c1ccc2cc(-c3ccccc3)[nH]c2c1` returned a solubility (kinetic) of 31.2 µg/mL (≈ 132 µM).

`CCOC(=O)Cc1csc(NC(=O)CC(C)(C)CC(=O)O)n1` showed a solubility (kinetic) of more than 49.3 µg/mL. The value for `O=C1Nc2ccccc2N=C(c2ccccc2)c2ccccc21` was 0.9 µg/mL (≈ 3.02 µM); that for `O=C(Nc1cccc2c1CCCC2)c1ccccc1Br` was less than 0.7 µg/mL.

`CCCCOc1ccc(C(=O)NCCc2ccccc2)cc1` came in with a solubility (kinetic) of less than 0.6 µg/mL. In turn, `CNC(=O)N(C)c1ccc(C(O)(C(=O)OC)C(F)(F)F)cc1` (configuration not stated) came in with a solubility (kinetic) of 46.7 µg/mL (≈ 146 µM).

Consider `Cc1ccc2c(c1)/C(=C/c1ccccc1)C(=O)N2`, for which the kinetic solubility is 2.3 µg/mL (≈ 9.78 µM). In turn, `O=C(CN1CCCCC1)N1CCN(c2ccccc2)CC1` showed a solubility (kinetic) of more than 43.1 µg/mL. In turn, `O=C(Nc1cccnc1)OC1CCCCC1` gave a solubility (kinetic) of more than 33 µg/mL.

In the case of `COC(OC)c1ccnc(-c2ccc(OC(=O)c3ccccc3)cc2)n1`, the solubility (kinetic) is less than 0.4 µg/mL. In turn, `O=C1CNC(=O)N1c1ccc(Cl)cc1` registered a kinetic solubility of more than 31.6 µg/mL.

Take `C=CCn1c(=O)c2ccccc2n2c(SCC(=O)NC(C)C)nnc12`: the kinetic solubility is more than 53.6 µg/mL. Take `N#Cc1cc([N+](=O)[O-])ccc1NCCc1ccccn1`: the kinetic solubility is more than 40.2 µg/mL.

In turn, `CC(=O)Oc1ccc(C(=O)Nc2cccnc2)cc1` returned a solubility (kinetic) of more than 38.4 µg/mL. Next, `O=C(NCCNC(=O)c1ccccn1)c1ccccc1`: 36 µg/mL (≈ 134 µM); `CCCCCOC(=O)C1=C(C)NC(=O)NC1c1ccccc1` (configuration not stated): 4.9 µg/mL (≈ 16.2 µM). Take `N#Cc1ccc(N2CCOCC2)nc1`: the kinetic solubility is more than 28.4 µg/mL. `CN1CCC(N(C)c2ccc(C(N)=O)cc2[N+](=O)[O-])CC1` registered a solubility (kinetic) of 40.1 µg/mL (≈ 137 µM). The value for `CCOc1cc(C=O)ccc1OCCn1c([N+](=O)[O-])cnc1C` was 18.1 µg/mL (≈ 56.7 µM); that for `O=C(N/N=C1\CC2CC=CC12)c1ccc(Br)cc1` (configuration not stated) was more than 45.8 µg/mL; that for `Nc1nc2ccc(Cc3ccncc3)cc2s1` was more than 36.2 µg/mL.

`CC(C)(C)c1ccc(-c2noc(CCC(=O)N3CCOCC3)n2)cc1` registered a solubility (kinetic) of 44.2 µg/mL (≈ 129 µM).

The molecule `CN(c1ccccc1)S(=O)(=O)c1cccc(NC(=O)CCNC(=O)c2ccc([N+](=O)[O-])cc2)c1` came in with a kinetic solubility of 13 µg/mL (≈ 26.9 µM). As to `CC(O)c1ccc(OCCN(C)c2ccccn2)cc1` (configuration not stated), the solubility (kinetic) is more than 40.9 µg/mL. `CC(NC(=O)CSc1nc2ccccc2n1C)c1ccccc1` (configuration not stated) displayed a solubility (kinetic) of more than 48.8 µg/mL.

As for `COc1ccccc1/C(C)=N/Oc1cc(N)cc([N+](=O)[O-])c1`, the solubility (kinetic) came to 1.7 µg/mL (≈ 5.64 µM). As for `CC[N+](CC)(CC)CC(=O)Nc1c(C)cccc1C.[Br-]`, the solubility (kinetic) is more than 51.5 µg/mL. Take `Cc1ncc([N+](=O)[O-])n1CC(=O)Nc1ccc(Cl)cc1`: the kinetic solubility came out at 5.7 µg/mL (≈ 19.3 µM).

Regarding `CC(=O)c1ccc(NC(=O)c2cccc(NC(=O)c3ccccc3)c2)cc1`, the kinetic solubility worked out at 0.7 µg/mL (≈ 1.95 µM). `Cl.O=C(CN1CCOCC1)c1ccc(Br)cc1` returned a kinetic solubility of more than 48.1 µg/mL. With `Cc1ccc(NC(=O)COC(=O)CNC(=O)c2ccco2)cc1`, the solubility (kinetic) is 44.7 µg/mL (≈ 141 µM). Consider `Cc1c(C(=O)O)cc(-c2ccccc2)n1Cc1ccccc1`, for which the solubility (kinetic) was more than 43.7 µg/mL. The value for `O=S(=O)(c1cnc[nH]1)N1CCN(c2ccc(F)cc2)CC1` was 5.8 µg/mL (≈ 18.7 µM); that for `COc1ccc(N(CC(=O)NC2CCCCC2)S(=O)(=O)c2cccs2)cc1` was 1.2 µg/mL (≈ 2.94 µM). In the case of `COc1ccccc1NC(=O)COC(=O)CNC(=O)C1CCCCC1`, the solubility (kinetic) is more than 52.3 µg/mL.

As to `O=C(Nc1ccc(F)cc1)Nc1cnccn1`, the solubility (kinetic) came to 27.9 µg/mL (≈ 120 µM).

Turning to `Cc1ccc(CNC(=O)Cc2ccc(Br)cc2)cc1`, the solubility (kinetic) was less than 0.7 µg/mL. Turning to `O=C(N1CCN(Cc2ccc3c(c2)OCO3)CC1)C(Cl)(Cl)Cl`, the solubility (kinetic) is 37.6 µg/mL (≈ 103 µM).

In turn, `O=C(O)CNS(=O)(=O)c1c(Cl)cccc1Cl` had a kinetic solubility of more than 42.6 µg/mL. `CC(C)C(NC(=O)CN1C(=O)c2cccc3cccc1c23)C(C)C` displayed a solubility (kinetic) of 2.1 µg/mL (≈ 6.47 µM). Regarding `CN(CCS(=O)(=O)c1ccc(Cl)cc1)Cc1cccnc1`, the kinetic solubility was more than 48.7 µg/mL. Molecule `COc1ccc(CNC(=O)CSc2nc3ccccc3n2C(C)=O)cc1` returned a kinetic solubility of 21.2 µg/mL (≈ 57.4 µM). The molecule `COc1ccc(NC(=S)NC(=O)c2ccccc2)cn1` had a solubility (kinetic) of 35.8 µg/mL (≈ 125 µM). In the case of `COc1ccc(CCNC(=O)/C=C/C(=O)O)cc1OC`, the solubility (kinetic) is more than 41.9 µg/mL.

In turn, `O=C1c2ccccc2S(=O)(=O)N1Cc1c(F)cccc1Cl` had a solubility (kinetic) of less than 0.7 µg/mL.

`CC(=O)c1cccc(NC(=O)CO/N=C2/CCCc3nonc32)c1` had a kinetic solubility of 45.7 µg/mL (≈ 139 µM).

For orientation: kinetic solubility means the concentration staying in solution when a stock, usually in DMSO, is diluted into the medium.
